This passage reports MIC results from patent US10287275B2, “16-member triamilide derivatives and uses thereof” (VICTOR PHARMA CO., LTD. ZHENJIANG, priority 2015, dated 2019).

Holding throughout (assay type): cell-based
One test deals with M. hyorinis BTS-7. Briefly: Mycoplasma susceptibility testing (MIC). Here is the method:
(§1) The MIC's in Table I and Table II were determined by standard agar-dilution assays or broth-dilution microtiter test.

A further test relates to M. gallisepticum BG44T. The test is described as follows: Mycoplasma susceptibility testing (MIC). To be noted: Mycoplasmoides gallisepticum. Here is the method: as §1
The next test deals with M. gallisepticum S6. Briefly: Mycoplasma susceptibility testing (MIC). To be noted: Mycoplasmoides gallisepticum. Here is the method: as §1
Test [1] relates to Escherichia coli 25922 (QC strain). The test is described as follows: Antibacterial MIC, agar-dilution or broth-dilution microtiter test. To be noted: Strain F: Escherichia coli 25922 (QC strain). Here is the method: as §1
Test [2] concerns Staphylococcus aureus 5-1. The test is described as above. To be noted: 51; Strain G: Staphylococcus aureus 5-1. The method, then:
as §1

In test [3] the test system is Klebsiella pneumoniae 3753. Described as above. To be noted: Strain J: Klebsiella pneumoniae 3753. The method, then:
as §1

Another test relates to Pasteurella 8229. Described as above. To be noted: Strain D: Pasteurella 8229. The method, then: as §1
Test [4] concerns Actinobacillus pleuropneumoniae serotype 1. Described as above. The settings on record: Strain A: Actinobacillus pleuropneumoniae serotype 1. Here is the method:
as §1

The next test deals with salmonella LD4-8. The test is described as above. The settings on record: LD48; Strain I: salmonella LD4-8. The method, then:
as §1

Test [5] deals with Staphylococcus aureus 29213 (QC strain). Described as above. To be noted: Strain H: Staphylococcus aureus 29213 (QC strain). The method, then: as §1
Test [6] deals with Klebsiella pneumoniae 3699. The description is as above. The settings on record: Strain K: Klebsiella pneumoniae 3699. Here is the method:
as §1

In test [7] the test system is Streptococcus pneumoniae 49619 (QC strain). The description is as above. The settings on record: Strain M: Streptococcus pneumoniae 49619 (QC strain). Here is the method:
as §1

Test [8] relates to Streptococcus pneumoniae 2349. The description is as above. The settings on record: Strain L: Streptococcus pneumoniae 2349. The method, then:
as §1

Another test has as its system Pasteurella 8217. The test is described as above. The settings on record: Strain C: Pasteurella 8217. Here is the method: as §1
For test [9], the system named is Actinobacillus pleuropneumoniae serotype 7. The description is as above. To be noted: Strain B: Actinobacillus pleuropneumoniae serotype 7. Here is the method:
as §1

A further test concerns Escherichia coli IN-F6-7. The test is described as above. The settings on record: INF67; Strain E: Escherichia coli IN-F6-7. Here is the method:
as §1

Values after ≈ are worked out from the molar mass of the structure shown.

Usually MIC stands for the smallest concentration in the dilution series that meets the test's criterion for growth inhibition. A low value points to a more susceptible organism. Regarding `CC[C@H]1OC(=O)C[C@@H](O)[C@H](C)[C@@H](O[C@@H]2O[C@H](C)[C@@H](O)[C@H](N(C)C)[C@H]2O)[C@@H](CCN2CCCCC2)C[C@@H](C)C(=O)/C=C/C(C)=C/[C@@H]1CN(C)Cc1ccccc1` [Compound 4f, (4R,5S,6S,7R,9R,11E,13E,15R,16R)-15-((benzyl(methyl)amino)methyl)-6-(((2R,3R,4S,5S,6R)-4-(dimethylamino)-3,5-dihydroxy-6-methyltetrahydro-2H-pyran-2-yl)oxy)-16-ethyl-4-hydroxy-5,9,13-trimethyl-7-(2-(piperidin-1-yl)ethyl)oxacyclohexadeca-11,13-diene-2,10-dione], the minimum inhibitory concentration (MIC) in the test with M. hyorinis BTS-7 was 0.98 µg/mL (≈ 1.27 µM); against M. gallisepticum BG44T it was under 0.12 µg/mL; in the test with M. gallisepticum S6 it was 0.24 µg/mL (≈ 0.312 µM); in [1] it was 4 µg/mL (≈ 5.19 µM); in test [2], 128 µg/mL (≈ 166 µM); in test [3] it was 32 µg/mL (≈ 41.6 µM). The MIC is 0.12 µg/mL (≈ 0.156 µM) against Pasteurella 8229; 16 µg/mL (≈ 20.8 µM) in test [4]; 4 µg/mL (≈ 5.19 µM) in the test on salmonella LD4-8; 2 µg/mL (≈ 2.6 µM) in test [5]; over 256 µg/mL in [6]; 0.5 µg/mL (≈ 0.649 µM) in test [7]. Further, the MIC is under 0.12 µg/mL in [8], under 0.12 µg/mL against Pasteurella 8217, 64 µg/mL (≈ 83.1 µM) in test [9] and 4 µg/mL (≈ 5.19 µM) with Escherichia coli IN-F6-7.

For the compound `CC[C@H]1OC(=O)C[C@@H](O)[C@H](C)[C@@H](O[C@@H]2O[C@H](C)[C@@H](O)[C@H](N(C)C)[C@H]2O)[C@@H](CCN2CCCCC2)C[C@@H](C)C(=O)/C=C/C(C)=C/[C@@H]1CN(CC)CC` [Compound 4a, (4R,5S,6S,7R,9R,11E,13E,15R,16R)-15-((diethylamino)methyl)-6-(((2R,3R,4S,5S,6R)-4-(dimethylamino)-3,5-dihydroxy-6-methyltetrahydro-2H-pyran-2-yl)oxy)-16-ethyl-4-hydroxy-5,9,13-trimethyl-7-(2-(piperidin-1-yl)ethyl)oxacyclohexadeca-11,13-diene-2,10-dione], the MIC against M. hyorinis BTS-7 is 62.5 µg/mL (≈ 86.6 µM); against M. gallisepticum BG44T, under 0.12 µg/mL; against M. gallisepticum S6 it was under 0.12 µg/mL; in [1], 4 µg/mL (≈ 5.54 µM); in test [2], over 256 µg/mL; in test [3], 32 µg/mL (≈ 44.3 µM). Moreover, the minimal inhibitory concentration (MIC) with Pasteurella 8229 was 0.5 µg/mL (≈ 0.693 µM); in test [4], 32 µg/mL (≈ 44.3 µM); against salmonella LD4-8, 4 µg/mL (≈ 5.54 µM); in [5], 4 µg/mL (≈ 5.54 µM); in test [6], over 256 µg/mL; in test [7] it was 8 µg/mL (≈ 11.1 µM). For the same compound, the MIC turned out to be 0.5 µg/mL (≈ 0.693 µM) in test [8], 0.5 µg/mL (≈ 0.693 µM) against Pasteurella 8217, 32 µg/mL (≈ 44.3 µM) in test [9] and 8 µg/mL (≈ 11.1 µM) against Escherichia coli IN-F6-7.
